Assay results as given in US8063208B2, “Crystalline forms of (3R,4R)-4-amino-1-[[4-[(3-methoxyphenyl)amino]pyrrolo[2,1-f][1,2,4]triazin-5-yl]methyl]piperidin-3-ol” (Bristol-Myers Squibb Company, priority 2006, dated 2011).

How the values were obtained:
[1] = molecular target: HER4 (Homo sapiens, UniProt Q15303); assay: HER4 tyrosine kinase inhibition; type: biochemical
[2] = molecular target: HER2 (Homo sapiens, UniProt P04626); assay: HER2 tyrosine kinase inhibition; type: biochemical
[3] = test system: HER2 and HER1 driven tumor xenograft models; assay: Anti-tumor efficacy in tumor xenograft models; type: in vivo
[4] = molecular target: VEGFR2 (Homo sapiens, UniProt P35968); assay: VEGFR2 inhibition; type: biochemical
Chain of VEGFR2 (P35968 20-1356, species assumed): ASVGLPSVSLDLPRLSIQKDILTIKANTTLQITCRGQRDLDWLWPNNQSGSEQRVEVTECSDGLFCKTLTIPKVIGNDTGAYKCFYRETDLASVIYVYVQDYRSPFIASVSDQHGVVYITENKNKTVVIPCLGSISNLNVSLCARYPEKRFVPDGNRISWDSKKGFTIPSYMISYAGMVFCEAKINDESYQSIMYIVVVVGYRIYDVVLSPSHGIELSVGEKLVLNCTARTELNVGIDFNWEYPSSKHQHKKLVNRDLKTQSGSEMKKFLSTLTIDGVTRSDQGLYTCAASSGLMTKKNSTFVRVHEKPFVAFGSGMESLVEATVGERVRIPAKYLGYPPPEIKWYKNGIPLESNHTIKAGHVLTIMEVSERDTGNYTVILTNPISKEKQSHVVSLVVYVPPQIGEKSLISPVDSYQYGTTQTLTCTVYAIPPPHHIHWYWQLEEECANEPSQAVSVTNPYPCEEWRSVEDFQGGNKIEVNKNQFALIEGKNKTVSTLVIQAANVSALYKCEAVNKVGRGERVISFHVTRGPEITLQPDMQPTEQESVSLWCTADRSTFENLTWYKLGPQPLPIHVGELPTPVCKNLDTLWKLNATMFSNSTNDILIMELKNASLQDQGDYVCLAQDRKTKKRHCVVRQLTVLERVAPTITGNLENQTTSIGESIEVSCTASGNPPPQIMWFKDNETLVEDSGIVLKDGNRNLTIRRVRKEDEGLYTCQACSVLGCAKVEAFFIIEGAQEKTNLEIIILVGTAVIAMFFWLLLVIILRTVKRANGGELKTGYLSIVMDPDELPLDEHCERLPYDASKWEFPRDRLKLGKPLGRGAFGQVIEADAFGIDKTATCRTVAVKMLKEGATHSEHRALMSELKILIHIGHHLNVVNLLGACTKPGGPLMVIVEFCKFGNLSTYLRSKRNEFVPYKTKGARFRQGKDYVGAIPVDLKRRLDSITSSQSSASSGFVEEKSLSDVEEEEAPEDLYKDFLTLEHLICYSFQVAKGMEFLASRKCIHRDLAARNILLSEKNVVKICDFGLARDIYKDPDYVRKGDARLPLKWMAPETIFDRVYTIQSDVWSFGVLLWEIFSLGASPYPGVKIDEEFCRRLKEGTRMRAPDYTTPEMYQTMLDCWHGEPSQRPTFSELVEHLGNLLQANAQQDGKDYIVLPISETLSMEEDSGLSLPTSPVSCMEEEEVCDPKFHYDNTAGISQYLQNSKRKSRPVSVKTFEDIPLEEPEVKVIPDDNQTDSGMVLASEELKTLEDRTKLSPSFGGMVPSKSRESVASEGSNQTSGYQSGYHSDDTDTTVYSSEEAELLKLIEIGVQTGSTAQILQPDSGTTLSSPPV

[5] = molecular target: HER1 (Homo sapiens, UniProt P00533); assay: HER1 tyrosine kinase inhibition; type: biochemical
Chain of HER1 (P00533 25-1210): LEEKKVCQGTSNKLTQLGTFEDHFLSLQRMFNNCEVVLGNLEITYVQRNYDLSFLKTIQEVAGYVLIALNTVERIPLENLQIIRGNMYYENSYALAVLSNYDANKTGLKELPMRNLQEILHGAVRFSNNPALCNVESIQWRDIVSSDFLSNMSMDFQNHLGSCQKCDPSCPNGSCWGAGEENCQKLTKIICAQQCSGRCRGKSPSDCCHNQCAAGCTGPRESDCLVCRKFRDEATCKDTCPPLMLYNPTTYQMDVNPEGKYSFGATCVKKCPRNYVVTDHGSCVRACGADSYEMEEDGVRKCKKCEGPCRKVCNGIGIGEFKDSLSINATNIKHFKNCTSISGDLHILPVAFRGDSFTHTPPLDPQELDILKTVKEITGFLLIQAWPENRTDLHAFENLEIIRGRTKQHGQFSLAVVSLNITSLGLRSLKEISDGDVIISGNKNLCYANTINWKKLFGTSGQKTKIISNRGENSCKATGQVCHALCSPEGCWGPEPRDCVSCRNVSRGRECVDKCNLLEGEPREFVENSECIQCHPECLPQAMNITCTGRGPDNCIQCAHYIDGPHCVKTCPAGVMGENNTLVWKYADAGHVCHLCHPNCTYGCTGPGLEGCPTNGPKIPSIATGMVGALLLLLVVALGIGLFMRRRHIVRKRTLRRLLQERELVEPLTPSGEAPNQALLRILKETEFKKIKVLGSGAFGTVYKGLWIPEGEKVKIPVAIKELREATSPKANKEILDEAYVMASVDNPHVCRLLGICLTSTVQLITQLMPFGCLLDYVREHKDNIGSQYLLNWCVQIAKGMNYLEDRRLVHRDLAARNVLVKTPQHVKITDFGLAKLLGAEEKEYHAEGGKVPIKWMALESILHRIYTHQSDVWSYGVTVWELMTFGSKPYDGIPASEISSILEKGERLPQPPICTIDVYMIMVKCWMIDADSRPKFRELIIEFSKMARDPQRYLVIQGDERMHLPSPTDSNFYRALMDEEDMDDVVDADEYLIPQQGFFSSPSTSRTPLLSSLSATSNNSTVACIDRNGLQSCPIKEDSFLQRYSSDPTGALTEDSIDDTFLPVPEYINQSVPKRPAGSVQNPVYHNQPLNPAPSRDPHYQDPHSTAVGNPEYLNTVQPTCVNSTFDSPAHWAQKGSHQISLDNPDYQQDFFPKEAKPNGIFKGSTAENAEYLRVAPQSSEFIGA

[6] = test system: various tumor cell lines; assay: Antiproliferative activity in tumor cell lines; type: cell-based
[7] = Form conversion on heating (melt/recrystallization); type: physicochemical; conditions: melts at about 137° C.
Procedure: Differential scanning calorimetry (DSC) experiments were performed in a TA Instruments™ model Q1000 or 2920. The sample (about 2-6 mg) was weighed in an aluminum pan and recorded accurately recorded to a hundredth of a milligram, and transferred to the DSC. The instrument was purged with nitrogen gas at 50 mL/min. Data were collected between room temperature and 300° C. at 10° C./min heating rate. The plot was made with the endothermic peaks pointing down.

[8] = Relative thermodynamic stability of crystalline forms; type: physicochemical; conditions: temperatures from room temperature to 50° C.
[9] = Slurry conversion of mixtures of forms; type: physicochemical; conditions: slurried mixtures of N-1 and N-2 convert to Form N-2

Chain of HER4 (Q15303 26-1308): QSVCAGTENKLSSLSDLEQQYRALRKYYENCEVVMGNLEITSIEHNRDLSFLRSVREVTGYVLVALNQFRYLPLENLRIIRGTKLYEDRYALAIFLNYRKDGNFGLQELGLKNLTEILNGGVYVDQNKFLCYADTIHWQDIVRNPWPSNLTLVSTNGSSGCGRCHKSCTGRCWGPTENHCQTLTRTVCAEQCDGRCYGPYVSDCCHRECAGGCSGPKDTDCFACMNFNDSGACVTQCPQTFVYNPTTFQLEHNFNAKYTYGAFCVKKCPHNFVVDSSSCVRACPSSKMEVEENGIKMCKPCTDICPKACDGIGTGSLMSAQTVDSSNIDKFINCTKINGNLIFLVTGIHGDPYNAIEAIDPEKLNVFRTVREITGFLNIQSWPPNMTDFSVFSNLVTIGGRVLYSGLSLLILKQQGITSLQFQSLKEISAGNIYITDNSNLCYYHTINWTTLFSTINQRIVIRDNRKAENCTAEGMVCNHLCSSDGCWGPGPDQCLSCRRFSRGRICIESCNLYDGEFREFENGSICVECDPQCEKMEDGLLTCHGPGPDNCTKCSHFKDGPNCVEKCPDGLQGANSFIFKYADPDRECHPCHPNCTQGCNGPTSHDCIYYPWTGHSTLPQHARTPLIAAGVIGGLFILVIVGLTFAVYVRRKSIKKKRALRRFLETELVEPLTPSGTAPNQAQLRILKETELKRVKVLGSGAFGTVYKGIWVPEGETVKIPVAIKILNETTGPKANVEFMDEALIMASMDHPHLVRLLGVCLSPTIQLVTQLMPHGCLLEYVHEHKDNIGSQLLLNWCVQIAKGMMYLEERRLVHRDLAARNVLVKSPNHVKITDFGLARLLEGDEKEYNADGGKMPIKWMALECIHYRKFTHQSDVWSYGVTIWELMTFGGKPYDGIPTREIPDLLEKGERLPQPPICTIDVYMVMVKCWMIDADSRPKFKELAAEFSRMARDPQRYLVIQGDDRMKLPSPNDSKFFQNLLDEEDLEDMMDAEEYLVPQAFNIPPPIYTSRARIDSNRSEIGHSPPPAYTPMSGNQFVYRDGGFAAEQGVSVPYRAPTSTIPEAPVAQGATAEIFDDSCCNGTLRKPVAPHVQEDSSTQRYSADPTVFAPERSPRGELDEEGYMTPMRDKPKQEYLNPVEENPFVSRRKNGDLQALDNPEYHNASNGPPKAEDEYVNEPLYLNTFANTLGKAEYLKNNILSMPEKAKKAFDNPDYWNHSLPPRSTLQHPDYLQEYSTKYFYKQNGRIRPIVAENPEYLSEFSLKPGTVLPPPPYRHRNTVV
Chain of HER2 (P04626 23-1255): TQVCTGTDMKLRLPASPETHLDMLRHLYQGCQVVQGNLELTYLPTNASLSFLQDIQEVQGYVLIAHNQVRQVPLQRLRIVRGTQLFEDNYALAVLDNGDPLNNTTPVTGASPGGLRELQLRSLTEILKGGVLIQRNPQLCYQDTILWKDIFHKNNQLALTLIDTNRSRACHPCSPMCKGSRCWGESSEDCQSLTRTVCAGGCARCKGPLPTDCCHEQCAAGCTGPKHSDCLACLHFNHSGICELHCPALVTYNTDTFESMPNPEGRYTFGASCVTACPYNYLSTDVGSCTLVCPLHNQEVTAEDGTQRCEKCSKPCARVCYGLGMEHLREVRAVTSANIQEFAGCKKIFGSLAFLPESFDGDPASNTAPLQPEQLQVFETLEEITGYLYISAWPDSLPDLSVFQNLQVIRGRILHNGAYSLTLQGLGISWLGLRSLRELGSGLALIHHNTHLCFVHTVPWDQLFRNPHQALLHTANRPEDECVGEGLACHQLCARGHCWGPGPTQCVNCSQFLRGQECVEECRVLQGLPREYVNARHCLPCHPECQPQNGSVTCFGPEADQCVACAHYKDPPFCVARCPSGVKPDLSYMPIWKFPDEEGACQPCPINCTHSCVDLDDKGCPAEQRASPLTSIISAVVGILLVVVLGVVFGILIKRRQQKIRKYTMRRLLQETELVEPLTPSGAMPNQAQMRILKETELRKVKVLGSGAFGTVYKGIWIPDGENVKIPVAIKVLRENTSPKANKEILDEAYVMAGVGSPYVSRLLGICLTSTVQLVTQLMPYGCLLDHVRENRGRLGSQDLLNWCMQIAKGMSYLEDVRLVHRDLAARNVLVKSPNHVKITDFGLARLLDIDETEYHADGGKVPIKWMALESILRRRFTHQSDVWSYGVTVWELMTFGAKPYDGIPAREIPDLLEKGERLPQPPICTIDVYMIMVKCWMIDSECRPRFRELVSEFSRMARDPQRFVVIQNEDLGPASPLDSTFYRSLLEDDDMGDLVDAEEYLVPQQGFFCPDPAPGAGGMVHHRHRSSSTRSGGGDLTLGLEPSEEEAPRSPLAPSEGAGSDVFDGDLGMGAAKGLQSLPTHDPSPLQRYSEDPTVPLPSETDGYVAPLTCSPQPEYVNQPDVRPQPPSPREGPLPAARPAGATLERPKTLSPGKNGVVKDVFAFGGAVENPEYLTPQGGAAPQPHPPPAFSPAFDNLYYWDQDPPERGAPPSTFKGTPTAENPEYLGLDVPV

COc1cccc(Nc2ncnn3ccc(CN4CC[C@@H](N)[C@H](O)C4)c23)c1 [Compound I, (3R,4R)-4-amino-1-[[4-[(3-methoxyphenyl)amino]pyrrolo[2,1-f][1,2,4]triazin-5-yl]methyl]piperidin-3-ol]
inhibition of HER4 [1]: potent inhibitor
inhibition of HER2 [2]: potent inhibitor
anti-tumor efficacy [3]: excellent anti-tumor efficacy
inhibition of VEGFR2 [4]: potent inhibitor
inhibition of HER1 [5]: potent inhibitor
antiproliferative activity [6]: broad antiproliferative activity

COc1cccc(Nc2ncnn3ccc(CN4CC[C@@H](N)[C@H](O)C4)c23)c1 [Form N-1, (3R,4R)-4-amino-1-[[4-[(3-methoxyphenyl)amino]pyrrolo[2,1-f][1,2,4]triazin-5-yl]methyl]piperidin-3-ol]
solid form conversion after melting [7]: recrystallizes as Form N-2

COc1cccc(Nc2ncnn3ccc(CN4CC[C@@H](N)[C@H](O)C4)c23)c1 [Form N-2, (3R,4R)-4-amino-1-[[4-[(3-methoxyphenyl)amino]pyrrolo[2,1-f][1,2,4]triazin-5-yl]methyl]piperidin-3-ol]
thermodynamic stability relative to other form [8]: more thermodynamically stable than Form N-1
stability relationship from slurried mixtures of N-1 and N-2 [9]: monotropically more stable
